Laboratory results as given in patent US12617777B2, “GPR84 antagonists and uses thereof” (Liminal BioSciences Limited, priority 2021, dated 2026).

Target: T1, human GPR84 receptor (Homo sapiens, UniProt Q9NQS5)
T1 construct: host or cells: HEK293, transient transfection
Assay: Gαi biosensor BRET assay in HEK293 cells (antagonism of ZQ-16)
Type: cell-based
Conditions: HEK293, single concentration 2 μM (designated A)
How it was run: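 HEK293 cells transiently expressing human GPR84, Gαi2-Rluc8, GFP10-Gγ2 and Gβ1, in Tyrode's buffer pH 7.5. Compounds preincubated 5 min at 37° C, then 200 nmol/L ZQ-16 for 5 min at room temperature; coelenterazine 400A 5 μmol/L. BRET2 acceptor/donor ratio, background- and vehicle-corrected net BRET.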

T1 sequence (Q9NQS5 whole entry): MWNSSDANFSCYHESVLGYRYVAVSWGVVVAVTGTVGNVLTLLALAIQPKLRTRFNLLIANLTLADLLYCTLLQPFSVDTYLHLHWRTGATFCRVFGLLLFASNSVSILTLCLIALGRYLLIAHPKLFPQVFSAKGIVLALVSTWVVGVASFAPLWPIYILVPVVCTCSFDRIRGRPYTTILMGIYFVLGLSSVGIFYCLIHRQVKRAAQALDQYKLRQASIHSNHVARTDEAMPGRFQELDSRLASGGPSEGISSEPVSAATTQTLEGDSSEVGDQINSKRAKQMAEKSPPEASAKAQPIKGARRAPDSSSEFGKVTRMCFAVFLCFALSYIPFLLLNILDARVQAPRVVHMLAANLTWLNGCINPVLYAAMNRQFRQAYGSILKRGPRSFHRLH

Row | inhibition at 2 µM | SMILES
1 | > 75% | Cc1cc(C#CCn2cc(-c3ccc(N(C)C)cc3)nn2)cnc1-c1cn(CC2CCCCO2)nn1 (stereo not drawn) [Compound I-712]
2 | > 75% | CC1(C)COC(Cn2cc(-c3ncc(C#CCN4CC(C)(C)C4)cc3OC3CC3)nn2)OC1 [Compound I-709]
3 | > 75% | Cc1ccc(C#CC2CC2)cc1C(CC(F)(F)F)c1cn(CC2OCC(C)(C)CO2)nn1 (stereo not drawn) [Compound I-681]
4 | 25 to 50% | Cc1cc(N2CC(C)(C(=O)Nc3ccccc3)C2)ccc1-c1cn(CC2CCCCO2)nn1 (stereo not drawn) [Compound I-410]
5 | 50 to 75% | Cc1ccc(C#CC2CC2)cc1Cc1cn(CC2CC(C)(C)CO2)nn1 (stereo not drawn) [Compound I-643]
6 | ≤ 25% | Cc1cc(C#CC2CC2)ccc1-c1cn(CC2CCC(=O)N2)nn1 (stereo not drawn) [Compound I-542]
7 | 25 to 50% | Cc1ccc(C#CC2CC2)cc1Cc1cn(CC2COc3ncccc3O2)nn1 (stereo not drawn) [Compound I-552]
8 | > 75% | CC(C)c1cc(C#CCN2CC(C)(C)C2)cnc1-c1cn(CC2OCC(C)(C)CO2)nn1 [Compound I-727]
9 | > 75% | CN(C)c1cc(C#CCNc2ccccc2)ccc1-c1cn(CC2CCCCO2)nn1 (stereo not drawn) [Compound I-203]
10 | > 75% | CC1(C)COC(Cn2cc(-c3ccc(N4CC(C)(CO)C4)cc3CC(F)(F)F)nn2)OC1 [Compound I-735]
11 | > 75% | Cc1cc(C#CCNC2CC2)ccc1-c1cn(CC2OCC(C)(C)CO2)cn1 [Compound I-820]

Same assay, conditions: HEK293, single concentration 10 μM (designated F)

Row | inhibition at 10 µM | SMILES
12 | 25 to 50% | FC(F)c1cc(C#CC2CC2)ccc1-c1cn(CC2CCCCO2)nn1 (stereo not drawn) [Compound I-560]
13 | ≤ 25% | Cc1cc(C2CCN(Cc3ccccn3)CC2)ccc1-c1cn(CC2CCCCO2)nn1 (stereo not drawn) [Compound I-440]
14 | > 75% | OCC#Cc1cnc(-c2cn(CC3OCC4(CC4)CO3)nn2)c(OC2CC2)c1 [Compound I-839]
15 | > 75% | Cc1cc(N2CCCC(N(C)Cc3ccccc3)C2)ccc1-c1cn(CC2CCCCO2)nn1 (stereo not drawn) [Compound I-171]
16 | ≤ 25% | Cc1cc(C#CC2CC2)ccc1-c1cn(CC2CCC(=O)O2)nn1 (stereo not drawn) [Compound I-539]
17 | 50 to 75% | Cc1cc(N2CCN(Cc3ccncn3)CC2)ccc1-c1cn(CC2CCCCO2)nn1 (stereo not drawn) [Compound I-565]
18 | ≤ 25% | Cc1cc(N2CC(F)(F)C2)ccc1-c1cn(CC2CCCCO2)nn1 (stereo not drawn) [Compound I-158]
19 | ≤ 25% | Cc1ccc(-c2ccc(C3COC(=O)N3CC3CCCCO3)c(C)c2)cn1 (stereo not drawn) [Compound I-407, 4-(2-methyl-4-(6-methylpyridin-3-yl)phenyl)-3-((tetrahydro-2H-pyran-2-yl)methyl)oxazolidin-2-one]
20 | 50 to 75% | Cc1cc(C#CCO)ccc1-c1cn(CC2OCC(F)(F)CO2)nn1 [Compound I-692]
21 | ≤ 25% | Cc1cc(-c2cn(CC3CCCCO3)nn2)nnc1C#CC1CC1 (stereo not drawn) [Compound I-434]
22 | ≤ 25% | Cc1cc(C2CCN(c3ccccn3)CC2)ccc1-c1cn(CC2CCCCO2)nn1 (stereo not drawn) [Compound I-583]
23 | > 75% | Cc1cc(N2CC(C)(C)C2)cnc1-c1cn(CC2OCC(C)(C)CO2)cn1 [Compound I-726]
24 | 50 to 75% | Cc1cc(N2CC3(CCN(C(=O)c4ccccc4)CC3)C2)ccc1-c1cn(CC2CCCCO2)nn1 (stereo not drawn) [Compound I-310]
25 | > 75% | Cc1ccc(C#CC2CC2)cc1C1(c2cn(CC3CCCCO3)nn2)CC1 (stereo not drawn) [Compound I-679, 4-(1-(5-(cyclopropylethynyl)-2-methylphenyl)cyclopropyl)-1-((tetrahydro-2H-pyran-2-yl)methyl)-1H-1,2,3-triazole]
26 | 50 to 75% | Cc1cc(C#CC2CC2)ccc1-c1cn(C[C@H]2COC(C)(C)O2)nn1 [Compound I-222]
27 | > 75% | COCC1CN(c2ccc(-c3cn(CC4OCC(C)(C)CO4)nn3)c(N(C)C)c2)C1 [Compound I-755]
28 | 50 to 75% | Cc1cc(F)c(C#CC2CC2)cc1-c1cn(CC2CCCCO2)nn1 (stereo not drawn) [Compound I-249]
29 | > 75% | CC(C)c1cc(N2CC(C)(C)C2)cnc1-c1cn(CC2CCCCO2)nn1 (stereo not drawn) [Compound I-461]
30 | ≤ 25% | c1ccc(COc2ccc3c(c2)CCc2cnn(CC4CCCCO4)c2-3)cc1 (stereo not drawn) [Compound I-331]
31 | 25 to 50% | Cc1cc(C#CC2CC2)sc1-c1cn(CC2CCCCO2)nn1 (stereo not drawn) [Compound I-116]
32 | ≤ 25% | Cc1cc(C#CC2CC2)ccc1-c1cn(CC2CNCCO2)nn1 (stereo not drawn) [Compound I-180]
33 | ≤ 25% | C(#CC1CC1)c1ccc2c(c1)CCc1c-2nnn1CC1CCCCO1 (stereo not drawn) [Compound I-303, 7-(cyclopropylethynyl)-3-((tetrahydro-2H-pyran-2-yl)methyl)-4,5-dihydro-3H-naphtho[1,2-d][1,2,3]triazole]

Row | inhibition at 10 µM | SMILES
34 | ≤ 25% | Cc1ccc(-c2cccc(-c3nnn(CC4CCCCO4)c3C)c2)cn1 (stereo not drawn) [Compound I-95]
35 | > 75% | Cc1cc(C#CCn2cc(-c3ccccc3)nn2)cnc1-c1cn(CC2CCCCO2)nn1 (stereo not drawn) [Compound I-720]
36 | > 75% | CC1(C)COC(Cn2cnc(-c3ncc(C#CCN4CC(C)(C)C4)cc3OC3CC3)c2)OC1 [Compound I-845]
37 | ≤ 25% | Cc1cc(C#CC2CC2)ccc1-c1nn(CC2CCCCO2)c(=O)o1 (stereo not drawn) [Compound I-15]
38 | ≤ 25% | Cc1ccc(C#CCNCc2ccccc2)cc1-c1cn(CC2CCCCO2)nn1 (stereo not drawn) [Compound I-201]
39 | ≤ 25% | Cc1cc(N2CC(N(C)C)C2)ccc1-c1cn(CC2CCCCO2)nn1 (stereo not drawn) [Compound I-114]
40 | > 75% | Cc1cc(N2CCC(Cc3ccccn3)CC2)cnc1-c1cn(CC2CCCCO2)nn1 (stereo not drawn) [Compound I-503]
41 | 50 to 75% | Cc1cc(N2CC3(CCN(Cc4ccccn4)CC3)C2)ccc1-c1cn(CC2CCCCO2)nn1 (stereo not drawn) [Compound I-311]
42 | > 75% | CC1(CO)CN(c2cnc(-c3cn(CC4OCC5(CCC5)O4)nn3)c(OCC(F)(F)F)c2)C1 (stereo not drawn) [Compound I-816]
43 | ≤ 25% | Cc1cc(C#CC2CC2)nnc1-c1cn(CC2CCCCO2)nn1 (stereo not drawn) [Compound I-433]
44 | 50 to 75% | Cc1cc(C#CC2COC2)ccc1-c1cn(CC2CCCCO2)nn1 (stereo not drawn) [Compound I-576]
45 | 25 to 50% | COc1cc(C#CC2CC2)ccc1-c1cn(CC2CCCCO2)nn1 (stereo not drawn) [Compound I-82]
46 | 25 to 50% | Cc1cc(N2CC3(CN(Cc4ccccc4)C3)C2)ccc1-c1cn(CC2CCCCO2)nn1 (stereo not drawn) [Compound I-146]
47 | ≤ 25% | Cc1cc(C#CCN2CC(C)(C)C2)cnc1-c1cn(CCc2ncccn2)nn1 [Compound I-717]
48 | 25 to 50% | Cc1ccc(C#CCN2CC(C)(C)C2)cc1Cc1cn(CC2CCCCO2)nn1 (stereo not drawn) [Compound I-415]
49 | ≤ 25% | Cc1cc(N2CCCC(N(C)C)C2)ccc1-c1cn(CC2CCCCO2)nn1 (stereo not drawn) [Compound I-153]
50 | > 75% | CCc1ccc(C#CC2CC2)cc1-n1nc(CC2CCCCO2)oc1=O (stereo not drawn) [Compound I-20]
51 | ≤ 25% | Cc1cc(C#CC2CC2)ccc1-c1cn(CC2CN(C)C(=O)O2)nn1 (stereo not drawn) [Compound I-493]
52 | ≤ 25% | COCCn1cc(-c2ccc(C#CC3CC3)cc2)nn1 [Compound I-103]
53 | 25 to 50% | Cc1cc(C#CC2CC2)ccc1-c1cn(Cc2ccccn2)nn1 [Compound I-312]
54 | ≤ 25% | CC(c1cccc(N2CC(C)(C)C2)c1)c1cn(CC2CCCCO2)nn1 (stereo not drawn) [Compound I-536]

Same assay, conditions: HEK293, single concentration 25 μM (designated I)

Row | inhibition at 25 µM | SMILES
55 | 25 to 50% | O=c1oc(CC2CCCCO2)nn1-c1ccc(C#CC2CC2)cc1 (stereo not drawn) [Compound I-11]
56 | > 75% | Cc1c(-c2ccc(C#CC3CC3)cc2)ncn1CC1CCCCO1 (stereo not drawn) [Compound I-334]
57 | ≤ 25% | Cc1cc(C#CC2CC2)ccc1-n1cc(CN2CCOCC2)nn1 [Compound I-297]
58 | ≤ 25% | Cc1c(C#CC2CC2)cccc1-c1cn(CC2CCCCO2)nn1 (stereo not drawn) [Compound I-80]
59 | ≤ 25% | CC(C)(C)C#Cc1ccc(-c2cn(CC3CCCCO3)nn2)cc1 (stereo not drawn) [Compound I-58]
60 | ≤ 25% | COC(Cn1cc(-c2ccc(C#CC3CC3)cc2C)nn1)c1ccccc1 (stereo not drawn) [Compound I-73]
61 | ≤ 25% | Cc1cc(OCc2ccccc2)ccc1-c1cn(CC2CCCCO2)nn1 (stereo not drawn) [Compound I-52]
62 | ≤ 25% | O=S1(=O)CCC(Cn2cc(-c3ccc(C#CC4CC4)cc3)nn2)CC1 [Compound I-56]

Same assay, conditions: HEK293 cells, antagonism of 200 nmol/L ZQ-16

Row | IC50 | SMILES
63 | ≤ 0.3 µM | Cc1cc(C#CCn2cc(-c3ccc(N(C)C)cc3)nn2)cnc1-c1cn(CC2CCCCO2)nn1 (stereo not drawn) [Compound I-712]
64 | ≤ 0.3 µM | CC1(C)COC(Cn2cc(-c3ncc(C#CCN4CC(C)(C)C4)cc3OC3CC3)nn2)OC1 [Compound I-709]
65 | 1 to 3 µM | Cc1cc(N2CCCC(N(C)Cc3ccccc3)C2)ccc1-c1cn(CC2CCCCO2)nn1 (stereo not drawn) [Compound I-171]
66 | 0.3 to 1 µM | Cc1ccc(C#CC2CC2)cc1C(CC(F)(F)F)c1cn(CC2OCC(C)(C)CO2)nn1 (stereo not drawn) [Compound I-681]
67 | 1 to 3 µM | Cc1cc(N2CC3(CCN(C(=O)c4ccccc4)CC3)C2)ccc1-c1cn(CC2CCCCO2)nn1 (stereo not drawn) [Compound I-310]
68 | ≤ 0.3 µM | C[C@@H]1Cc2oc(C(=O)NCc3cnc(C4CC4)cn3)c(C(F)(F)F)c2-c2nn(C[C@H]3COCCO3)cc21 [Compound I-775]
69 | 0.3 to 1 µM | Cc1cc(C#CCn2cc(-c3ccccc3)nn2)cnc1-c1cn(CC2CCCCO2)nn1 (stereo not drawn) [Compound I-720]
70 | 0.3 to 1 µM | CC(C)c1cc(C#CCN2CC(C)(C)C2)cnc1-c1cn(CC2OCC(C)(C)CO2)nn1 [Compound I-727]
71 | 0.3 to 1 µM | CC1(C)COC(Cn2cc(-c3ccc(N4CC(C)(CO)C4)cc3OC3CC3)nn2)OC1 [Compound I-767]
72 | 1 to 3 µM | CN(C)c1cc(C#CCNc2ccccc2)ccc1-c1cn(CC2CCCCO2)nn1 (stereo not drawn) [Compound I-203]
73 | ≤ 0.3 µM | CC1(C)COC(Cn2cc(-c3ccc(N4CC(C)(CO)C4)cc3CC(F)(F)F)nn2)OC1 [Compound I-735]
74 | > 3 µM | COc1cc(C#CC2CC2)ccc1-c1cn(CC2CCCCO2)nn1 (stereo not drawn) [Compound I-82]
75 | 0.3 to 1 µM | Cc1cc(C#CCNC2CC2)ccc1-c1cn(CC2OCC(C)(C)CO2)cn1 [Compound I-820]
